Patent publication US8501787B2, “Compounds for the inhibition of angiogenesis and use thereof” (Shire Orphan Therapies GmbH, priority 2004, dated 2013)
Read-outs that look alike come from different tables or passages of the source.

Tests used:
retinal angiogenesis = experiment: Physiological retinal angiogenesis at newborn rats; format: in vivo, Sprague Dawley rats; conditions: intravitreal injection at P1 and P3, evaluated at P6, compared to vehicle treated and non-treated eye
Source text: Rats are born with a completely avascular retina with physiological retinal vascular development occurring in a centripetal manner within the first two weeks of life. At postnatal day P6 approximately 65% is physiologically vascularized, with vascularization being complete by P10-14.
Sprague Dawley rats were used according to protocols which are in conformity with the Association for Research in Vision and Ophthalmology's statements on the Use of Animals in Ophthalmic Research.
Rat pups were taken from within 24 h of birth and injected intravitreally at P1 with 3 μL of selected compound solved in saline. The same injection was repeated at P3. Controls include vehicle injected, as well as uninjected eyes. The animals were sacrificed by decapitation at P6. Upon sacrifice the eyes were enucleated and fixed in 10% buffered formalin phosphate (Fisher Scientific) for 30 minutes at RT. The retinas were dissected and post-fixed in methanol for 10 minutes at −20° C. The retinas were washed with 1% Triton X-100 in PBS and incubated overnight with a 1/100 solution of TRITC conjugated lectin griffonia simplicifolia (Sigma-Aldrich) in 1% Triton X-100 in PBS. […] The percentage of total vascularized area was calculated as a percent of the vascularized area over the total surface area (Adobe-Photoshop).

integrin alphaIIbbeta3 = target: T1, integrin alphaIIbbeta3 (Homo sapiens, UniProt P05106+P08514); experiment: AlphaIIbbeta3-Fibrinogen binding assay (competitive ELISA); conditions: inhibition of integrin binding to fibrinogen; read-out: IC50 alphabIIbbeta3 in nM
T1 construct: purchased Kordia (Kordia Life Science, Leiden, Netherlands)
Experimental: (§1) The optimal concentrations of integrin and ligand were selected from ELISA binding studies with variable concentrations of both to obtain optimal signal noise ratio for further studies. IC50 studies were performed with fixed concentration of ligand and integrin and a serial dilution of inhibitor. The plates were measured with SpectraMax Plus reader (Molecular Devices). The resulting inhibition curves were analyzed using SoftMaxPro 4.0 software, the turning point describes the IC50 value.
(§2) Fibronectin and Vitronectin were purchased from Sigma, fibrinogen from Calbiochem. (EMD Biosciences, Darmstadt, Germany) The integrin alpha5beta1 extracellular domain Fc-fusion was expressed and purified as described in (Coe, 2001, JBC, 276, 35854). Integrins alphavbeta3 and alphavbeta5 were purchased from Chemicon (Chemicon Europe, Germany) and alphaIIbbeta3 form Kordia (Kordia Life Science, Leiden, Netherlands)
(§3) Fibrinogen was diluted with coating buffer (15 mM Na2CO3, 35 mM NaHCO3, pH9.6) and coated with 100 μL/well to Nunc-Immuno maxisorp plates over night at 4° C. After discarding the coating solution plates were washed 3 times with buffer 1 (25 mM Tris, pH7.6, 150 mM NaCl, 1 mM MnCl2, 1 mg/mL BSA) and blocked with 100 μL blocking buffer (3% BSA in PBS 0.1% Tween20) for 1 hour at room temperature. […] The developed colour was measured at 450 nm and analyzed as described above.

integrin alpha5beta1 = target: T2, integrin alpha5beta1 (Homo sapiens, UniProt P05556+P08648); experiment: Alpha5beta1-Fibronectin binding assay (competitive ELISA)
T2 construct: The integrin alpha5beta1 extracellular domain Fc-fusion was expressed and purified; made in house
Experimental: as §1, §2
Fibronectin was diluted with coating buffer (15 mM Na2CO3, 35 mM NaHCO3, pH9.6) and coated with 100 μL/well to Nunc-Immuno maxisorp plates (Nalge Nunc Europe Ltd) over night at 4° C. After discarding the coating solution plates were washed 3 times with buffer 1 ([…], pH7.6, 150 mM NaCl, 1 mM […], 1 mg/mL BSA) and blocked with 100 μL blocking buffer (3% BSA in PBS 0.1% Tween20) for 1 hour at room temperature. After washing the blocked plates (3 times) with buffer 1, integrin (50 μL) and either inhibitor (serial dilution in buffer 1) or buffer 1 (50 μL) were added to the wells and incubated for one hour at RT. Plates were then washed (3 times) with buffer 1 and incubated with 100 μL of anti-human-Fc-HRP antibody conjugate (Sigma-Aldrich, Taufkirchen, Germany) in buffer 1 for 1 hour at RT. After additional washing steps (3 times) with buffer 1 50 μL of HRP substrate solution TMB (Seramun, Germany) were added to the wells. Colour development was stopped after 3-5 minutes with 50 μL 1M H2SO4. The developed colour was measured at 450 nm and analyzed as described above.

integrin alphavbeta3 = target: T3, integrin alphavbeta3 (Homo sapiens, UniProt P05106+P06756); experiment: Vitronectin binding assay, alphavbeta3 (competitive ELISA); conditions: inhibition of integrin binding to vitronectin
T3 construct: purchased Chemicon (Chemicon Europe, Germany)
Experimental: as §1, §2
as §3, with “Vitronectin” for “Fibrinogen”

integrin alphavbeta5 = target: T4, integrin alphavbeta5 (Homo sapiens, UniProt P06756+P18084); experiment: Vitronectin binding assay, alphavbeta5 (competitive ELISA); conditions: inhibition of integrin binding to vitronectin
T4 construct: purchased Chemicon (Chemicon Europe, Germany)
Experimental: as §1, §2
Vitronectin was diluted with coating buffer (15 mM Na2CO3, 35 mM NaHCO3, pH9.6) and coated with 50 μL/well to Nunc-Immuno maxisorp plates over night at 4° C. […]
Plates were then washed (3 times) with buffer 2 and incubated with 50 μL of anti-alphavbeta5 antibody (Chemicon) in buffer 2 for 1 hour at RT. […] The developed colour was measured at 450 nm and analyzed as described above.

[1] = system: K562 erythroleukemia cells; experiment: Cell adhesion assay with K562 on fibronectin; format: cell-based; conditions: at 0.5 μM; OD 570
Experimental: K562 erythroleukemia cells were obtained from the German Collection of Microorganisms and Cell Cultures GmbH (DMSZ, Braunschweig, Germany). Cells were cultured in RPMI medium containing 10% fetal calf serum, 2 mM glutamine and 100 U/mL penicillin-streptomycin (all from Biochrom AG, Germany).
The cell adhesion assays were performed in 96-well Nunc-Immuno maxisorp plates. The wells were coated for 1 h at 37° C. with 100 μL aliquots of fibronectin (10 μg/mL in phosphate-buffered-saline, 120-kDa fragment, Chemicon Europe, Germany), then blocked with 10 mg/mL heat denatured BSA in phosphate buffer for 30 min.
K562 cells were resuspended to 4×10^6 cells/mL in […], 25 mM Hepes, 2 mM EDTA, pH 7.4, and incubated for 30 min at 37° C. As a next step the cells were washed two times with the same buffer. 100 μL cell aliquots were then added to 100 μL aliquots of the same buffer with in addition 4 mM MgCl2, […] and different concentrations of compounds. These samples were preincubated for 30 min at 37° C. After that 100 μL aliquots were transferred to the microtiter wells and the cells were allowed to adhere to the substrate for 30 min at 37° C. in a humidified atmosphere of 5% CO2. […]
The absorbance of each well at 570 nm was then measured using the SpectraMax Plus reader. […]

[2] = inhibition of integrin binding to fibronectin, read-out: IC50 alpha5beta1 in nM
[3] = method of section 1.1, read-out: Group (binding activities to integrin alpha5beta1)

Compound	retinal angiogenesis (vessel area, % of total retinal area) (retinal angiogenesis)	IC50 (integrin alphaIIbbeta3) [nM]	IC50 (integrin alpha5beta1; [2]) [nM]	IC50 (integrin alpha5beta1; [3]) [nM]	IC50 (integrin alphavbeta3) [nM]	IC50 (integrin alphavbeta5) [nM]	inhibition of K562 cell adhesion to fibronectin [1]
Cc1cc(C)c(S(=O)(=O)N[C@@H](CNC(=O)CO[C@@H]2C[C@@H](CNc3ccccn3)N(C(=O)OCc3ccccc3)C2)C(=O)O)c(C)c1 [Compound 5, 12S,14R,30S-4-{[2-Carboxy-2-(2,4,6-trimethyl-benzenesulfonylamino)-ethylcarbamoyl]-methoxy}-2-(pyridin-2-ylaminomethyl)-pyrrolidine-1-carboxylic acid benzyl ester]	significantly reduced	9000	3.7	< 10	11.6	230	–
Cc1cc(C)c(C(=O)N[C@@H](CNC(=O)CO[C@@H]2C[C@@H](CNc3ccccn3)N(C(=O)OCc3ccccc3)C2)C(=O)O)c(C)c1 [Compound 71, 4-{[2-Carboxy-2-(2,4,6-trimethyl-benzoylamino)-ethylcarbamoyl]-methoxy}-2-(pyridin-2-ylaminomethyl)-pyrrolidine-1-carboxylic acid benzyl ester]	–	> 50000	2.4	< 10	~30000	> 50000	significantly active in inhibiting cell adhesion
